This note sets out measurements from publication PMC12434667 (Journal of Medicinal Chemistry, 2025).

As usually defined, the AUC(0-t) is exposure summed from dosing to a finite time, without extrapolation to infinity. A word on the Cmax: it is the peak of the concentration-time curve. As a reminder, the DC50 is the concentration at which degradation of the target reaches its halfway point. One may read the IC50 as the midpoint of a concentration-inhibition curve. What is called IC90 is the concentration at which the effect reaches the 90% level. A word on the Vd: it is the apparent volume that relates the amount in the body to the concentration in plasma or blood. Broadly, the clearance is the volume of plasma or blood freed of the substance per unit of time. For orientation: half-life means the time in which the quantity being followed falls by half. What is called fraction unbound is the share of the substance not bound to proteins or other matrix.

The nature of data set [1]: Rat PK. Format: in vivo. The note with it: plasma, po, 10 mg/kg.
Data set [2] concerns the target CDK1 (Homo sapiens, UniProt P06493). Put plainly: 24-hr AlphaLISA of CDK1 degradation in TOV21G cells. The class given is cell-based. The conditions noted are these: vs CDK2 degradation. For orientation: In Alpha technology, singlet oxygen from a donor bead excites a nearby acceptor bead.
Data set [3] addresses CDK4 (Homo sapiens, UniProt P11802). Put plainly: 24-hr western blot of CDK4 degradation in TOV21G cells. The class given is cell-based. The note with it: read-out: TOV21G CDK4 DC50. A general note: A western blot detects proteins with antibodies after separation by electrophoresis.
Data set [4] deals with CDK6 (Homo sapiens, UniProt Q00534). Description: 24-hr western blot of CDK6 degradation in TOV21G cells. Format: cell-based. The note with it: read-out: TOV21G CDK6 DC50.
In data set [5] the target is CDK9 (Homo sapiens, UniProt P50750). Description: 24-hr AlphaLISA of CDK9 degradation in TOV21G cells. The class given is cell-based.
Data set [6] deals with pRB S807/811. Description: 24-hr AlphaLISA of pRB inhibition in MKN1 cells. Format: cell-based. The conditions noted are these: Homo sapiens, MKN-1, 24 h.
The nature of data set [7]: Monkey PK. Format: in vivo.
A short description of data set [8]: Dog PK. Format: in vivo.
In data set [9] the test system is human PBMC cells. Description: Tandem mass tag deep proteome profiling. The conditions noted are these: 800 nM, 8 h, over 8000 proteins. Format: cell-based.
Data set [10] is described as follows: Plasma PK in HCC1569 xenograft model. The conditions noted are these: mouse HCC1569 xenograft; for AUC0–24h free: mouse PPB 98.02%. The class given is in vivo.
Data set [11] can be described thus: Plasma protein binding. The class given is in vitro ADME. The conditions noted are these: mouse.
Data set [12] concerns HCC1569 tumor xenograft. Description: HCC1569 tumor xenograft efficacy. Format: in vivo, mouse. The note with it: 28 days; for day 28 %dTV (mean ± SEM): HCC1569 xenograft mice.
Data set [13] concerns pRB. Put plainly: Tumor AlphaLISA. Format: in vivo, mouse. The conditions noted are these: HCC1569 xenograft, sustained.
Data set [14] addresses CDK4/CyclinD3 (Homo sapiens, UniProt P11802). Description: Biochemical enzymatic inhibition assay. The note with it: biochemical IC50 vs CDK2.
In data set [15] the target is CDK6/CyclinD3 (Homo sapiens, UniProt Q00534). Put plainly: Biochemical enzymatic inhibition assay. The note with it: biochemical IC50 vs CDK2.
Data set [16] has as its system panel of nonmutant kinases. Description: Kinomescan panel. The note with it: 1 μM, panel of 403 nonmutant kinases. Format: binding.

“And” between values parts separate entries of the source, which are not always exact repeats. Identical values can stand only once.

Sequence of CDK9 (P50750 whole entry): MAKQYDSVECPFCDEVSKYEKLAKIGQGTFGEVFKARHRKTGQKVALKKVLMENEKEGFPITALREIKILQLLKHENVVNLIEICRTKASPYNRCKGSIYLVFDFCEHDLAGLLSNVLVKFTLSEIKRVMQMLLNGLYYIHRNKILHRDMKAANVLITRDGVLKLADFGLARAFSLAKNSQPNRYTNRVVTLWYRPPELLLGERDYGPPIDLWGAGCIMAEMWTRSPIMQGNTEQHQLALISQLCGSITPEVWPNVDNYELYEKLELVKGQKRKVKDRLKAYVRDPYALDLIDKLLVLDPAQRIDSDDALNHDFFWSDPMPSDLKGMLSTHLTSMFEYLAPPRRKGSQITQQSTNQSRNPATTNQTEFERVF
Sequence of CDK4 (P11802 whole entry): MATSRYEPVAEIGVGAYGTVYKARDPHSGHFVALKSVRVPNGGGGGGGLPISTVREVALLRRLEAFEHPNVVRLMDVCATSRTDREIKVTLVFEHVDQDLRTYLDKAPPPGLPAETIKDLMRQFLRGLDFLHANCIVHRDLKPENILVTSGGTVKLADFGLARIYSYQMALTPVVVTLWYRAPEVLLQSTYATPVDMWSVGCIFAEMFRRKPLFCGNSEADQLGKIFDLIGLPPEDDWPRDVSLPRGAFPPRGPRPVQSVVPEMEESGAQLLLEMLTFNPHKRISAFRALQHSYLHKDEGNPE
Sequence of CDK4/CyclinD3 (P11802 whole entry): as above
Sequence of CDK4/CyclinD3 (P30281 whole entry partner): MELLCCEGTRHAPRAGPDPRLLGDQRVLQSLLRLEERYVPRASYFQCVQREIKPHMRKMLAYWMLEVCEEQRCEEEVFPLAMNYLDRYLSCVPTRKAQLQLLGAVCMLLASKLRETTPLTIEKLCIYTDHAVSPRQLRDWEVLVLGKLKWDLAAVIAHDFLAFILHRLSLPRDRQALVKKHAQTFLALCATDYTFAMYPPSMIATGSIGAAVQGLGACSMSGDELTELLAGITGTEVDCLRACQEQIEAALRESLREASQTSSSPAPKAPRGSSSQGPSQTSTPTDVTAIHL
Sequence of CDK6 (Q00534 whole entry): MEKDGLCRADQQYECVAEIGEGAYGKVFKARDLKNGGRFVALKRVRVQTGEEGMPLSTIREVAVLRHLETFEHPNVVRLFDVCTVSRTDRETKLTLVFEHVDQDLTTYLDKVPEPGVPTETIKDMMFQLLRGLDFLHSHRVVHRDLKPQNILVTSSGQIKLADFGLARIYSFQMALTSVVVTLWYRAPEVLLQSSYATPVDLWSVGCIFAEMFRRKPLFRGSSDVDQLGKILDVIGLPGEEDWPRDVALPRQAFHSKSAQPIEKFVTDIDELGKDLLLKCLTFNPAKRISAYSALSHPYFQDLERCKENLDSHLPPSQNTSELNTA
Sequence of CDK6/CyclinD3 (Q00534 whole entry): as above
Sequence of CDK6/CyclinD3 (P30281 whole entry partner): as the sequence (P30281 whole entry partner) above
Sequence of CDK1 (P06493 whole entry): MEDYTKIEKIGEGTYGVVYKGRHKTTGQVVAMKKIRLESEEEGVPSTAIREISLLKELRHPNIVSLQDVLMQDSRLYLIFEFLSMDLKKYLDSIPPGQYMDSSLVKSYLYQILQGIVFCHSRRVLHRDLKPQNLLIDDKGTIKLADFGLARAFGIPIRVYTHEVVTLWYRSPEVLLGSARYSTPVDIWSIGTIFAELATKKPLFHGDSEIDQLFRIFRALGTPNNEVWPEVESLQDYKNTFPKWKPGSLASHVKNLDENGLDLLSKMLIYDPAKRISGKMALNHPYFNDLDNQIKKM

As for `C[C@]1(O)CCCN(c2nc(Nc3ccc(S(=O)(=O)N[C@@H]4CCN(CC5CCN(c6ccc(C7CCC(=O)NC7=O)cc6F)CC5)C[C@@H]4F)cc3F)ncc2C(F)(F)F)C1` (stereo partly drawn) [Compound 37, N-[(3S,4R)-1-[[1-[4-(2,6-Dioxo-3-piperidyl)-2-fluoro-phenyl]-4-piperidyl]methyl]-3-fluoro-4-piperidyl]-3-fluoro-4-[[4-[(3S)-3-hydroxy-3-methyl-1-piperidyl]-5-(trifluoromethyl)pyrimidin-2-yl]amino]benzenesulfonamide], the exposure AUC(0-t) in data set [1] is 3.63 µM·h; in [7] (plasma, po, 1 mg/kg), 0.25 µM·h; in data set [8] (plasma, po, 1 mg/kg), 0.557 µM·h. The Cmax stood at 261 nM in [1]; 14 nM in data set [7] (plasma, po, 1 mg/kg); 26 nM in [8] (plasma, po, 1 mg/kg). The “degradation selectivity over CDK1” value in [2] is on record as greater than 100 fold. Moreover, the 50% degradation concentration (DC50) in data set [3] is greater than 10000 nM; in data set [4] it was 1280 nM; in data set [5] (read-out: TOV21G CDK9 DC50, 24 h), greater than 10000 nM. Also, the “degradation selectivity over CDK9” value in data set [5] (vs CDK2 degradation) is reported as greater than 500 fold. For the same compound, in [6] (read-out: MKN1 pRB IC50), the IC50 turned out to be 23 nM. Moreover, the IC90 in data set [6] (read-out: MKN1 pRB IC90) was determined as 110 nM. Also, the “monkey F” value in data set [7] (IV 0.07 / PO 1 mg/kg, 1 mg/kg) is on record as 12%. Further, the Vd is 5.7 L/kg in [7] (plasma, iv, 0.07 mg/kg) and 4.2 L/kg in data set [8] (plasma, iv, 0.1 mg/kg). The clearance in data set [7] (plasma, iv, 0.07 mg/kg) was 9.1 mL/min/kg; in [8] (plasma, iv, 0.1 mg/kg) it was 3.9 mL/min/kg. Further, the half-life in [7] (plasma, iv, 0.07 mg/kg) was 8.6 h; in data set [8] (plasma, iv, 0.1 mg/kg), 14.4 h. For the same compound, the “dog F” value in [8] (IV 0.1 / PO 1 mg/kg, 1 mg/kg) came to 12%. The significantly downregulated proteins result in data set [9] is given as “CDK2 as the only significantly downregulated protein”. The “AUC0–24h/D” value came to 624 mg·h/mL in data set [10] (PO 10 mg/kg BID × 3 days), 709 mg·h/mL in [10] (PO 25 mg/kg BID × 3 days), 949 mg·h/mL in data set [10] (PO 50 mg/kg BID × 3 days) and 1377 mg·h/mL in data set [10] (PO 50 mg/kg QD × 3 days). In addition, the “AUC0–24h free” value in [10] (PO 25 mg/kg BID × 3 days) is 14.2 ng·h/mL; in data set [10] (PO 50 mg/kg BID × 3 days), 19.0 ng·h/mL; in data set [10] (PO 50 mg/kg QD × 3 days), 27.5 ng·h/mL. Also, the fraction unbound at 30 min, 1 µM in [11] is 0.0198. In addition, the antitumor activity result in [12] (25 mg/kg PO BID), in data set [12] (50 mg/kg PO BID) and in data set [12] (50 mg/kg PO QD) was “stable disease (30 to −30% is stable disease (0% = Tumor Stasis))” each time. The results for the “day 28 %dTV (mean ± SEM)” value in data set [12] (25 mg/kg PO BID) and in data set [12] (50 mg/kg PO BID) were “–26 ± 9%” and “–24 ± 10%”, respectively. Besides, the “inhibition of pRB in tumor” value in [13] was 90% and > 90%.

For the compound `CNS(=O)(=O)c1ccc(Nc2ncc3cc(Cl)c(=O)n(C4CCCC4)c3n2)c(C)c1` [Compound 1], the “selectivity over CDK4” value in data set [14] is reported as greater than 44 fold. In data set [15], the “selectivity over CDK6” value is listed as greater than 124 fold. Moreover, the “kinases tested showing >90% inhibition versus control” value in data set [16] was 18/403.
